Reference: the NIST ThermoML archive (doi:10.1016/j.fluid.2010.10.028)

Experiment: xn = mol fraction of the nth substance listed
Details: Liquid, Vibrating tube method

CC(C)=O [acetone] + CCCCCCC
Details	mass density [kg/m3]
377.4 K, 104790 kPa, x1 = 0.492	730.51
377.4 K, 104810 kPa, x1 = 0.801	762.89
377.4 K, 109780 kPa, x1 = 0.492	733.39
377.4 K, 109790 kPa, x1 = 0.801	765.94
377.4 K, 109820 kPa, x1 = 0.7024	753.96
377.4 K, 109850 kPa, x1 = 0.611	743.53
377.4 K, 114760 kPa, x1 = 0.801	768.91
377.4 K, 114820 kPa, x1 = 0.7024	756.89
377.4 K, 114850 kPa, x1 = 0.611	746.4
377.4 K, 119800 kPa, x1 = 0.7024	759.71
377.4 K, 119830 kPa, x1 = 0.492	738.96
377.4 K, 119830 kPa, x1 = 0.801	771.84
377.4 K, 124810 kPa, x1 = 0.7024	762.48
377.4 K, 124850 kPa, x1 = 0.492	741.61
377.4 K, 124850 kPa, x1 = 0.801	774.66
377.4 K, 129810 kPa, x1 = 0.7024	765.17
377.4 K, 129840 kPa, x1 = 0.611	754.52
377.4 K, 129840 kPa, x1 = 0.801	777.42
377.4 K, 129850 kPa, x1 = 0.492	744.18
377.41 K, 1430 kPa, x1 = 0.4	667.78
377.41 K, 1430 kPa, x1 = 0.8992	667.78
377.41 K, 5010 kPa, x1 = 0.4	675.34
377.41 K, 5010 kPa, x1 = 0.8992	675.34
377.41 K, 10000 kPa, x1 = 0.4	684.66
377.41 K, 10000 kPa, x1 = 0.8992	684.66
377.41 K, 14980 kPa, x1 = 0.4	692.99
377.41 K, 14980 kPa, x1 = 0.8992	692.99
377.41 K, 19960 kPa, x1 = 0.4	700.52
377.41 K, 19960 kPa, x1 = 0.8992	700.52
377.41 K, 24950 kPa, x1 = 0.4	707.43
377.41 K, 24950 kPa, x1 = 0.8992	707.43
377.41 K, 29840 kPa, x1 = 0.801	699.24
377.41 K, 29860 kPa, x1 = 0.492	670
377.41 K, 29930 kPa, x1 = 0.4	713.82
377.41 K, 29930 kPa, x1 = 0.8992	713.82
377.41 K, 34850 kPa, x1 = 0.801	705.2
377.41 K, 34930 kPa, x1 = 0.4	719.78
377.41 K, 34930 kPa, x1 = 0.8992	719.78
377.41 K, 39850 kPa, x1 = 0.801	710.77
377.41 K, 39910 kPa, x1 = 0.4	725.35
377.41 K, 39910 kPa, x1 = 0.8992	725.35
377.41 K, 44860 kPa, x1 = 0.801	716
377.41 K, 44890 kPa, x1 = 0.4	730.6
377.41 K, 44890 kPa, x1 = 0.8992	730.6
377.41 K, 49850 kPa, x1 = 0.801	720.93
377.41 K, 49880 kPa, x1 = 0.4	735.58
377.41 K, 49880 kPa, x1 = 0.8992	735.58
377.41 K, 54850 kPa, x1 = 0.492	695.17
377.41 K, 54860 kPa, x1 = 0.4	740.29
377.41 K, 54860 kPa, x1 = 0.8992	740.29
377.41 K, 59860 kPa, x1 = 0.4	744.79
377.41 K, 59860 kPa, x1 = 0.8992	744.79
377.41 K, 64820 kPa, x1 = 0.492	703.44
377.41 K, 64830 kPa, x1 = 0.4	749.06
377.41 K, 64830 kPa, x1 = 0.8992	749.06
377.41 K, 69810 kPa, x1 = 0.4	753.19
377.41 K, 69810 kPa, x1 = 0.8992	753.19
377.41 K, 74900 kPa, x1 = 0.492	711.06
377.41 K, 79760 kPa, x1 = 0.4	760.91
377.41 K, 79760 kPa, x1 = 0.8992	760.91
377.41 K, 84740 kPa, x1 = 0.4	764.58
377.41 K, 84740 kPa, x1 = 0.8992	764.58
377.41 K, 89720 kPa, x1 = 0.4	768.12
377.41 K, 89720 kPa, x1 = 0.8992	768.12
377.41 K, 94700 kPa, x1 = 0.4	771.53
377.41 K, 94700 kPa, x1 = 0.8992	771.53
377.41 K, 99670 kPa, x1 = 0.4	774.85
377.41 K, 99670 kPa, x1 = 0.8992	774.85
377.41 K, 104650 kPa, x1 = 0.4	778.05
377.41 K, 104650 kPa, x1 = 0.8992	778.05
377.41 K, 109630 kPa, x1 = 0.4	781.18
377.41 K, 109630 kPa, x1 = 0.8992	781.18
377.41 K, 114600 kPa, x1 = 0.4	784.19
377.41 K, 114600 kPa, x1 = 0.8992	784.19
377.41 K, 114850 kPa, x1 = 0.492	736.23
377.41 K, 119570 kPa, x1 = 0.4	787.15
377.41 K, 119570 kPa, x1 = 0.8992	787.15
377.41 K, 124540 kPa, x1 = 0.4	790.02
377.41 K, 124540 kPa, x1 = 0.8992	790.02
377.41 K, 129820 kPa, x1 = 0.4	793
377.41 K, 129820 kPa, x1 = 0.8992	793
387.3 K, 19850 kPa, x1 = 0.611	656.37
387.31 K, 1350 kPa, x1 = 0.611	620.65
387.31 K, 4850 kPa, x1 = 0.611	628.99
387.31 K, 9850 kPa, x1 = 0.611	639.33
387.31 K, 14880 kPa, x1 = 0.611	648.36
387.31 K, 39860 kPa, x1 = 0.611	682.12
387.31 K, 49860 kPa, x1 = 0.611	692.49
387.31 K, 54850 kPa, x1 = 0.611	697.23
387.31 K, 64910 kPa, x1 = 0.611	706.07
387.31 K, 84880 kPa, x1 = 0.611	721.4
387.31 K, 109790 kPa, x1 = 0.611	737.58
387.31 K, 114860 kPa, x1 = 0.611	740.58
387.31 K, 119850 kPa, x1 = 0.611	743.43
387.31 K, 124850 kPa, x1 = 0.611	746.21
387.31 K, 129830 kPa, x1 = 0.611	748.89
387.32 K, 1320 kPa, x1 = 0.801	639.55
387.32 K, 1540 kPa, x1 = 0.4	654.4
387.32 K, 1540 kPa, x1 = 0.8992	654.4
387.32 K, 9840 kPa, x1 = 0.801	658.47
387.32 K, 14970 kPa, x1 = 0.4	681.93
387.32 K, 14970 kPa, x1 = 0.8992	681.93
387.32 K, 24870 kPa, x1 = 0.611	663.63
387.32 K, 29860 kPa, x1 = 0.611	670.27
387.32 K, 34870 kPa, x1 = 0.611	676.42
387.32 K, 39850 kPa, x1 = 0.801	702.19
387.32 K, 39920 kPa, x1 = 0.4	716.49
387.32 K, 39920 kPa, x1 = 0.8992	716.49
387.32 K, 44860 kPa, x1 = 0.611	687.46
387.32 K, 49850 kPa, x1 = 0.801	712.89
387.32 K, 49880 kPa, x1 = 0.4	727.19
387.32 K, 49880 kPa, x1 = 0.8992	727.19
387.32 K, 54850 kPa, x1 = 0.801	717.78
387.32 K, 59840 kPa, x1 = 0.611	701.71
387.32 K, 59850 kPa, x1 = 0.4	736.82
387.32 K, 59850 kPa, x1 = 0.801	722.41
387.32 K, 59850 kPa, x1 = 0.8992	736.82
387.32 K, 64820 kPa, x1 = 0.801	726.8
387.32 K, 64830 kPa, x1 = 0.4	741.3
387.32 K, 64830 kPa, x1 = 0.8992	741.3
387.32 K, 69930 kPa, x1 = 0.611	710.16
387.32 K, 74800 kPa, x1 = 0.4	749.67
387.32 K, 74800 kPa, x1 = 0.8992	749.67
387.32 K, 74910 kPa, x1 = 0.611	714.05
387.32 K, 74910 kPa, x1 = 0.801	735.15
387.32 K, 79790 kPa, x1 = 0.4	753.62
387.32 K, 79790 kPa, x1 = 0.8992	753.62
387.32 K, 79900 kPa, x1 = 0.611	717.8
387.32 K, 84760 kPa, x1 = 0.4	757.4
387.32 K, 84760 kPa, x1 = 0.8992	757.4
387.32 K, 89750 kPa, x1 = 0.4	761.05
387.32 K, 89750 kPa, x1 = 0.8992	761.05
387.32 K, 89870 kPa, x1 = 0.611	724.87
387.32 K, 94730 kPa, x1 = 0.4	764.59
387.32 K, 94730 kPa, x1 = 0.8992	764.59
387.32 K, 94840 kPa, x1 = 0.801	749.8
387.32 K, 94850 kPa, x1 = 0.611	728.19
387.32 K, 99700 kPa, x1 = 0.4	768.01
387.32 K, 99700 kPa, x1 = 0.8992	768.01
387.32 K, 99840 kPa, x1 = 0.611	731.42
387.32 K, 104670 kPa, x1 = 0.4	771.32
387.32 K, 104670 kPa, x1 = 0.8992	771.32
387.32 K, 104810 kPa, x1 = 0.611	734.54
387.32 K, 104810 kPa, x1 = 0.801	756.41
387.32 K, 109640 kPa, x1 = 0.4	774.53
387.32 K, 109640 kPa, x1 = 0.8992	774.53
387.32 K, 109780 kPa, x1 = 0.801	759.56
387.32 K, 114600 kPa, x1 = 0.4	777.64
387.32 K, 114600 kPa, x1 = 0.8992	777.64
387.32 K, 119580 kPa, x1 = 0.4	780.68
387.32 K, 119580 kPa, x1 = 0.8992	780.68
387.32 K, 119830 kPa, x1 = 0.801	765.63
387.32 K, 124530 kPa, x1 = 0.4	783.61
387.32 K, 124530 kPa, x1 = 0.8992	783.61
387.32 K, 129840 kPa, x1 = 0.4	786.68
387.32 K, 129840 kPa, x1 = 0.8992	786.68
387.33 K, 1300 kPa, x1 = 0.7024	628.97
387.33 K, 4820 kPa, x1 = 0.7024	637.48
387.33 K, 4860 kPa, x1 = 0.492	621.33
387.33 K, 4860 kPa, x1 = 0.801	648.03
387.33 K, 5010 kPa, x1 = 0.4	662.6
387.33 K, 5010 kPa, x1 = 0.8992	662.6
387.33 K, 9820 kPa, x1 = 0.7024	647.9
387.33 K, 9850 kPa, x1 = 0.492	631.47
387.33 K, 10000 kPa, x1 = 0.4	672.89
387.33 K, 10000 kPa, x1 = 0.8992	672.89
387.33 K, 14850 kPa, x1 = 0.492	640.29
387.33 K, 14860 kPa, x1 = 0.801	667.65
387.33 K, 19810 kPa, x1 = 0.7024	665.07
387.33 K, 19860 kPa, x1 = 0.801	675.81
387.33 K, 19960 kPa, x1 = 0.4	690.05
387.33 K, 19960 kPa, x1 = 0.8992	690.05
387.33 K, 24860 kPa, x1 = 0.801	683.23
387.33 K, 24940 kPa, x1 = 0.4	697.46
387.33 K, 24940 kPa, x1 = 0.8992	697.46
387.33 K, 29820 kPa, x1 = 0.7024	679.2
387.33 K, 29830 kPa, x1 = 0.801	690
387.33 K, 29940 kPa, x1 = 0.4	704.27
387.33 K, 29940 kPa, x1 = 0.8992	704.27
387.33 K, 34860 kPa, x1 = 0.801	696.35
387.33 K, 34930 kPa, x1 = 0.4	710.58
387.33 K, 34930 kPa, x1 = 0.8992	710.58
